Experimental data taken from ChEMBL document CHEMBL1140843, “Discovery of new inhibitors of D-alanine:D-alanine ligase by structure-based virtual screening” (J Med Chem, 2008).
pKi: −log10 of the molar value. Values after ≈ are worked out from the molar mass of the structure shown. Active and inactive are the calls of the source. The calls are words filed in the database; no cut-off is given here.

Experiments:
[1] = Inhibition of Escherichia coli DdlB
Escherichia coli [2] = test: Antibacterial activity against Escherichia coli SM1411 after 16 hrs broth microdilution method; format: functional
Staphylococcus aureus = test: Antibacterial activity against Staphylococcus aureus 8325-4 after 16 hrs broth microdilution method; format: functional; conditions: 8325-4, 16 h
Escherichia coli [3] = test: Antibacterial activity against Escherichia coli 1411 after 16 hrs broth microdilution method; format: functional
Escherichia coli [4] = test: Inhibition of Escherichia coli DdlB at 250 uM preincubated for 15 mins before substrate addition measured after 20 mins

MIC (Escherichia coli [2]) [µg/mL] | MIC (Staphylococcus aureus) [µg/mL] | MIC (Escherichia coli [3]) [µg/mL] | Activity (Escherichia coli [4]) | SMILES | pKi [1]
 |  |  |  | N[C@@H]1CONC1=O [CYCLOSERINE] | 4.66
 |  |  |  | C[C@@H](N)C(=O)NP(=O)(O)O | 4.30
8 (≈ 24 µM) | 32 (≈ 96 µM) | 32 (≈ 96 µM) | Active | COc1ccc2c(c1)c1c(C)c3cnccc3c(C)c1n2CCCN | 4.96
 |  |  |  | N[C@@H](C[C@H]1C[C@]1(C(=O)O)c1ccccc1)C(=O)O | 4.90
64 (≈ 138 µM) | 32 (≈ 69.1 µM) |  | Active | COc1ccc2nc3cc(Cl)ccc3c(Nc3ccc(O)c(CN4CCN(C)CC4)c3)c2c1 | 3.66
 |  |  |  | C/C(O)=C(\C#N)C(=O)Nc1cc(Br)ccc1Br | 3.73
 |  |  |  | CS[C@@H](CP(=O)(O)[C@@H](C)N)C(=O)O | 5.40
 |  |  |  | CC(C)(CCl)C(=O)Nc1ccc(C(F)(F)F)cc1 | 5.40
 |  |  |  | O=C(/N=N/C(=O)Nc1ccc(Cl)cc1)NCc1cccnc1 | 4.48
